Laboratory results published in US6509328B1, “Glutamate receptor antagonists” (Hoffmann-La Roche Inc., priority 1999, dated 2003).

System: not given
Assay: not given

melting point | SMILES
198 to 200 °C (dec.) | N#Cc1cccc(C2=Nc3ccc(I)cc3NC(=O)C2)c1 [Example 1, 3-(7-Iodo-4-oxo-4,5-dihydro-3H-benzo[b][1,4]diazepin-2-yl)-benzonitrile]
193 to 196 °C | O=C1CC(c2cccc(-n3ccnc3)c2)=Nc2ccc(C#Cc3ccccc3)cc2N1 [Example 52]
216 to 218 °C | O=C1CC(c2cccc(-n3ccnc3)c2)=Nc2ccc(C#Cc3ccc(F)cc3)cc2N1 [Example 58, 8-(4-Fluoro-phenylethynyl)-4-(3-imidazol-1-yl-phenyl)-1,3-dihydro-benzo [b][1,4]diazepin-2-one]
217 to 218 °C | O=C1CC(c2cccc(-n3cncn3)c2)=Nc2ccc(C#Cc3ccc(F)cc3)cc2N1 [Example 62, 8-(4-Fluoro-phenylethynyl)-4-(3-[1,2,4]triazol-1-yl-phenyl)-1,3-dihydro-benzo[b][1,4]diazepin-2-one]
206 °C (dec.) | O=C1CC(c2ccnc(-n3ccnc3)c2)=Nc2ccc(C#Cc3ccc(F)cc3)cc2N1 [Example 68, 8-(4-Fluoro-phenylethynyl)-4-(2-imidazol-1-yl-pyridin-4-yl)-1,3-dihydro-benzo[b][1,4]diazepin-2-one]
> 250 °C (dec.) | NC(=O)c1cccc(C2=Nc3ccc(C#Cc4ccccc4)cc3NC(=O)C2)c1 [Example 148, 3-(4-Oxo-7-phenylethynyl-4,5-dihydro-3H-benzo [b][1,4]diazepin-2-yl)-benzamide]
267 to 270 °C (dec.) | NC(=S)c1cccc(C2=Nc3ccc(-c4ccc(F)cc4)cc3NC(=O)C2)c1 [Example 149, 3-[7-(4-Fluoro-phenyl)-4-oxo-4,5-dihydro-3H-benzo [b][1,4]diazepin-2-yl]-thiobenzamide]
232 to 234 °C (dec.) | NC(=S)c1cccc(C2=Nc3ccc(-c4ccccc4F)cc3NC(=O)C2)c1 [Example 150, 3-[7-(2-Fluoro-phenyl)-4-oxo-4,5-dihydro-3H-benzo[b][1,4]diazepin-2-yl]-thiobenzamide]
259 to 261 °C (dec.) | Cc1csc(-c2cccc(C3=Nc4ccc(-c5ccc(F)cc5)cc4NC(=O)C3)c2)n1 [Example 152, 8-(4-Fluoro-phenyl)-4-[3-(4-methyl-thiazol-2-yl)-phenyl]-1,3-dihydro-benzo [b][1,4]diazepin-2-one]
236 to 238 °C (dec.) | CCOC(=O)c1csc(-c2cccc(C3=Nc4ccc(-c5ccc(F)cc5)cc4NC(=O)C3)c2)n1 [Example 153, 2-{3-[7-(4-Fluoro-phenyl)-4-oxo-4,5-dihydro-3H-benzo [b][1,4]diazepin-2-yl]-phenyl}-thiazole-4-carboxylic Acid Ethyl Ester]
172 to 175 °C | CCOC(=O)c1csc(-c2cccc(C3=Nc4ccc(-c5ccccc5F)cc4NC(=O)C3)c2)n1 [Example 154, 2-{3-[7-(2-Fluoro-phenyl)-4-oxo-4,5-dihydro-3H-benzo [b][1,4]diazepin-2-yl]-phenyl}-thiazole-4-carboxylic Acid Ethyl Ester]
238 to 240 °C (dec.) | CCOC(=O)c1csc(-c2cc(C3=Nc4ccc(-c5ccc(F)cc5)cc4NC(=O)C3)ccn2)n1 [Example 155, 2-{4-[7-(4-Fluoro-phenyl)-4-oxo-4,5-dihydro-3H-benzo[b][1,4]diazepin-2-yl]-pyridin-2-yl}-thiazole-4-carboxylic Acid Ethyl Ester]
235 to 239 °C (dec.) | O=C1CC(c2cccc(-c3nc(CO)cs3)c2)=Nc2ccc(-c3ccc(F)cc3)cc2N1 [Example 156, 8-(4-Fluoro-phenyl)-4-[3-(4-hydroxymethyl-thiazol-2-yl)-phenyl]-1,3-dihydro-benzo[b][1,4]diazepin-2-one]
225 to 229 °C | O=C1CC(c2ccnc(-c3nc(CO)cs3)c2)=Nc2ccc(-c3ccc(F)cc3)cc2N1 [Example 158, 8-(4-Fluoro-phenyl)-4-[2-(4-hydroxymethyl-thiazol-2-yl)-pyridin-4-yl]-1,3-dihydro-benzo[b][1,4]diazepin-2-one]
238 to 245 °C (dec.) | O=C1CC(c2cccc(-c3nc(C(=O)NCCO)cs3)c2)=Nc2ccc(-c3ccc(F)cc3)cc2N1 [Example 161, 2-{3-[7-(4-Fluoro-phenyl)-4-oxo-4,5-dihydro-3H-benzo [b][1,4]diazepin-2-yl]-phenyl}-thiazole-4-carboxylic Acid (2-hydroxy-ethyl)-amide]
248 to 251 °C (dec.) | Cc1nc(-c2cccc(C3=Nc4ccc(-c5ccc(F)cc5)cc4NC(=O)C3)c2)sc1C(=O)NCCO [Example 162, 2-{3-[7-(4-Fluoro-phenyl)-4-oxo-4,5-dihydro-3H-benzo [b][1,4]diazepin-2-yl]-phenyl}-4-methyl-thiazole-5-carboxylic Acid (2-hydroxy-ethyl)-amide]
254 to 256 °C (dec.) | Cc1nnc(-c2cccc(C3=Nc4ccc(-c5ccc(F)cc5)cc4NC(=O)C3)c2)o1 [Example 165, 8-(4-Fluoro-phenyl)-4-[3-(5-methyl-[1,3,4]oxadiazol-2-yl)-phenyl]-1,3-dihydro-benzo[b][1,4]diazepin-2-one]
220 to 222 °C | O=C1CC(c2cccc(-c3noc(CCCO)n3)c2)=Nc2ccc(-c3ccc(F)cc3)cc2N1 [Example 168, 8-(4-Fluoro-phenyl)-4-{3-[5-(3-hydroxy-propyl)-[1,2,4]oxadiazol-3-yl]-phenyl}-1,3-dihydro-benzo[b][1,4]diazepin-2-one]
266 to 268 °C | Cc1noc(-c2cccc(C3=Nc4ccc(-c5ccc(F)cc5)cc4NC(=O)C3)c2)n1 [Example 169, 8-(4-Fluoro-phenyl)-4-[3-(3-methyl-[1,2,4]oxadiazol-5-yl)-phenyl]-1,3-dihydro-benzo[b][1,4]diazepin-2-one]

Target: T1, rat mGlu2 receptor (Rattus norvegicus, UniProt P31421)
T1 construct: expressed in transfected cells; vector pcDNA I-amp (pcD1mGR2)
Assay: [3H]-LY354740 binding on mGlu2 transfected CHO cell membranes
From the text: [^3H]-LY354740 Binding on mGlu2 Transfected CHO Cell Membranes
Transfection and Cell Culture
cDNA encoding the rat mGlu2 receptor protein in pBluescript II was obtained from Prof. S. Nakanishi (Kyoto, Japan), and subcloned into the eukaryotic expression vector pcDNA I-amp from Invitrogen (N V Leek, The Netherlands). This vector construct (pcD1mGR2) was co-transfected with a psvNeo plasmid encoding the gene for neomycin resistance, into CHO cells by a modified calcium phosphate method described by Chen & Okayama (1988). The cells were maintained in Dulbecco's Modified Eagle medium with reduced L-glutamine (2 mM final concentration) and 10% dialysed foetal calf serum from Gibco BRL (Basel, Switzerland). Selection was made in the presence of […] (1000 ug/ml final). Clones were identified by reverse transcription of 5 μg total RNA, followed by PCR using mGlu2 receptor specific primers 5′-[…]-3′ and 5′-[…]-3′ in 60 mM Tris HCl (pH 10), 15 mM (NH4)2SO4, 2 mM MgCl2, 25 units/ml Taq Polymerase with 30 cycles annealing at 60° C. for 1 min., extension at 72° C. for 30s, and 1 min. 95° C. denaturation.
Cells, cultured as above, were harvested and washed three times with cold PBS and frozen at −80° C. The pellet was resuspended in cold 20 mM HEPES-NaOH buffer containing 10 mM EDTA (pH 7.4), and homogenised with a polytron (Kinematica, AG, Littau, Switzerland) for 10s at 10,000 rpm. After centrifugation for 30 min. at 4° C., the pellet was washed once with the same buffer, and once with cold 20 mM HEPES-NaOH buffer containing 0.1 mM EDTA, (pH 7.4). Protein content was measured using the Pierce method (Socochim, Lausanne, Switzerland) using bovine serum albumin as standard.
After thawing, the membranes were resuspended in cold 50 mM Tris-HCl buffer containing 2 mM MgCl2 and 2 mM CaCl2, (pH 7) (binding buffer). The final concentration of the membranes in the assays was 25 μg protein/ml. Inhibition experiments were performed with membranes incubated with 10 nM [^3H]-LY354740 at room temperature, for 1 hour, in presence of various concentrations of the compound to be tested. Following the incubations, membranes were filtered onto Whatmann GF/C glass fiber filters and washed 5 times with cold binding buffer. Non specific binding was measured in the presence of 10 μM DCG IV (TOCRIS No. 0975). After transfer of the filters into plastic vials containing 10 ml of Ultima-gold scintillation fluid (Packard, Zürich, Switzerland), the radioactivity was measured by liquid scintillation in a Tri-Carb 2500 TR counter (Packard, Zürich, Switzerland).
The inhibition curves were fitted with a four parameter logistic equation giving IC50 values, and Hill coefficients.

T1 sequence (P31421 19-872): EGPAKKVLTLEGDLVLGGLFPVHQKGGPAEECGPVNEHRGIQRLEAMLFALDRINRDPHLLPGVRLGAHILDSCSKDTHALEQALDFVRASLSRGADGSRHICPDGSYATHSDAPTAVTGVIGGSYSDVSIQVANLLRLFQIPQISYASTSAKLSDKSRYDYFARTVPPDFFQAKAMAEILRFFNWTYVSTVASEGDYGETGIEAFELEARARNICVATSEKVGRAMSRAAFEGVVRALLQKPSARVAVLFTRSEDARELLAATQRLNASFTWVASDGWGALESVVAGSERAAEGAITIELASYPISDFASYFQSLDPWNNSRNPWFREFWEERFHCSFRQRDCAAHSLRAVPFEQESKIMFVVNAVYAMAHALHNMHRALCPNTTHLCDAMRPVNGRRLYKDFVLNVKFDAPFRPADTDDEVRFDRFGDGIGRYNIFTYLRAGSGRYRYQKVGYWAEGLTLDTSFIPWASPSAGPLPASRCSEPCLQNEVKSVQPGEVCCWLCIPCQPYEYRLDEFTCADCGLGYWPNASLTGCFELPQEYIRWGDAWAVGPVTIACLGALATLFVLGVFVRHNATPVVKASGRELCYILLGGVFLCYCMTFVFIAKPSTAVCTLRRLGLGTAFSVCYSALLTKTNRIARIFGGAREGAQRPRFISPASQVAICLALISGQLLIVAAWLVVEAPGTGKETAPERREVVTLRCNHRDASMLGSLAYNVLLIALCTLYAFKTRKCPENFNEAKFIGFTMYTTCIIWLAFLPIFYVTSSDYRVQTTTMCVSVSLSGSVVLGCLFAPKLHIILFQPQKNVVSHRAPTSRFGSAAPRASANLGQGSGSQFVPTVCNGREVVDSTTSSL

Ki | SMILES
17 nM | N#Cc1cccc(C2=Nc3ccc(I)cc3NC(=O)C2)c1 [Example 1, 3-(7-Iodo-4-oxo-4,5-dihydro-3H-benzo[b][1,4]diazepin-2-yl)-benzonitrile]
40 nM | O=C1CC(c2cccc(Cl)c2)=Nc2ccc(C#Cc3ccccc3)cc2N1 [Example 5, 4-(3-Chloro-phenyl)-8-phenylethynyl-1,3-dihydro-benzo[b][1,4]diazepin-2-one]
6 nM | O=C1CC(c2cccc(-n3ccnc3)c2)=Nc2ccc(C#Cc3ccccc3)cc2N1 [Example 52]
55 nM | N#Cc1cccc(C2=Nc3ccc(-c4ccc(F)cc4)cc3NC(=O)C2)c1 [Example 57, 3-[7-(4-Fluoro-phenyl)-4-oxo-4,5-dihydro-3H-benzo[b][1,4]diazepin-2-yl]-benzonitrile]
4 nM | O=C1CC(c2cccc(-n3ccnc3)c2)=Nc2ccc(C#Cc3ccc(F)cc3)cc2N1 [Example 58, 8-(4-Fluoro-phenylethynyl)-4-(3-imidazol-1-yl-phenyl)-1,3-dihydro-benzo [b][1,4]diazepin-2-one]
49 nM | O=C1CC(c2cccc(-n3cncn3)c2)=Nc2ccc(C#Cc3ccc(F)cc3)cc2N1 [Example 62, 8-(4-Fluoro-phenylethynyl)-4-(3-[1,2,4]triazol-1-yl-phenyl)-1,3-dihydro-benzo[b][1,4]diazepin-2-one]
4 nM | O=C1CC(c2ccnc(-n3ccnc3)c2)=Nc2ccc(C#Cc3ccc(F)cc3)cc2N1 [Example 68, 8-(4-Fluoro-phenylethynyl)-4-(2-imidazol-1-yl-pyridin-4-yl)-1,3-dihydro-benzo[b][1,4]diazepin-2-one]
36 nM | O=C1CC(c2cccc(-n3cnnn3)c2)=Nc2ccc(C#Cc3ccc(F)cc3)cc2N1 [Example 87, 8-(4-Fluoro-phenylethynyl)-4-(3-tetrazol-1-yl-phenyl)-1,3-dihydro-benzo [b][1,4]diazepin-2-one]
39 nM | N#Cc1cc(C2=Nc3ccc(C#Cc4ccccc4)cc3NC(=O)C2)ccn1 [Example 98, 4-(4-Oxo-7-phenylethynyl-4,5-dihydro-3H-benzo [b][1,4]diazepin-2-yl)-pyridine-2-carbonitrile]
8 nM | O=C1CC(c2cccc(-n3ccnn3)c2)=Nc2ccc(-c3ccccc3F)cc2N1 [Example 110, 8-(2-Fluoro-phenyl)-4-(3-[1,2,3]triazol-1-yl-phenyl)-1,3-dihydro-benzo [b][1,4]diazepin-2-one]
10 nM | O=C1CC(c2cccc(-n3ccnn3)c2)=Nc2ccc(-c3ccc(F)cc3F)cc2N1 [Example 123, 8-(2,4-Difluoro-phenyl)-4-(3-[1,2,3]triazol-1-yl-phenyl)-1,3-dihydro-benzo [b][1,4]diazepin-2-one]
13 nM | O=C1CC(c2cccc(-n3ccnn3)c2)=Nc2ccc(-c3cccc(F)c3F)cc2N1 [Example 129, 8-(2,3-Difluoro-phenyl)-4-(3-[1,2,3]triazol-1-yl-phenyl)-1,3-dihydro-benzo[b][1,4]diazepin-2-one]
16 nM | O=C1CC(c2cccc(-c3nc(CO)cs3)c2)=Nc2ccc(-c3ccccc3F)cc2N1 [Example 157, 8-(2-Fluoro-phenyl)-4-[3-(4-hydroxymethyl-thiazol-2-yl)-phenyl]-1,3-dihydro-benzo[b][1,4]diazepin-2-one]
16 nM | O=C1CC(c2cccc(-c3nc(C(=O)O)cs3)c2)=Nc2ccc(-c3ccccc3F)cc2N1 [Example 160, 2-{3-[7-(2-Fluoro-phenyl)-4-oxo-4,5-dihydro-3H-benzo [b][1,4]diazepin-2-yl]-phenyl}-thiazole-4-carboxylic Acid]
